Test results: patent publication US4001429A, “1-Cyclopropyl-1-phenyl-ω-amino-1-alkanols and 1-lower-alkylacyl derivatives as analgetics” (A. H. Robins Company, Incorporated, priority 1975, dated 1977)
Counter-ions that a name gives are not always drawn.

How the values were obtained:
mice = test: analgesic activity in mice, modification of Nilsen's method; format: in vivo; conditions: Mus musculus, ip; administered intraperitoneally to mice; read-out: ED50 analgetic dose
Procedure: The analgesic activity of the 1-cyclopropyl-1-alkanoyloxy-1-phenyl-ω-amino alkane compounds of this invention were determined by a modification of Nilsen's method [Funderburk, W. H., et al, Arch. Int.

[1] = tested on: depressant effects which are induced in mice by tetrabenazine; test: blocking the depressant effects induced in mice by intravenous tetrabenazine (modification of Englehardt et al.); format: in vivo; conditions: Mus musculus, IP
Procedure: The activity of the compounds was determined by their administration intraperitoneally to mice and their effectiveness in blocking the depressant effects which are induced in mice by the intravenous administration of 2-oxo-3-insobutyl-9,10-dimethoxy-1,2,3,4,6,7-hexahydro-11bh-benzo[a]quinolizine (tetrabenazine). The procedure used was a modification of Englehardt, E. L. et al, J. Med. Chem. 11 (2), 325(1968). The ED50 values of the compounds are given in Table I; the compounds of Examples 3, 5, 7 and 8 are the preferred compounds.

`CCC(=O)OC(CCN(C)C)(c1ccccc1)C1CC1` (centres unmarked) [Example 10, 1-Cyclopropyl-3-dimethylamino-1phenyl-1-propionyloxypropane Hydrochloride] gave an ED50 (mice) of 14.2 mg/kg and an ED50 [1] of 7.7 mg/kg.
